# Counter-ions that a name gives are not always drawn.
# How the values were obtained:
# [1] = Growth performance and feed efficiency of lambs fed pelleted test diets ad libitum (live weight, feed intake by disappearance); assay type: in vivo, lambs (Border Leister x Merino)
# Text: Lambs were used in this study as the model animal representing ruminants. Previous research has shown similar growth performance, feed efficiency and carcass benefits from the inclusion of Ractopamine in cattle and lamb diets. Given this, it is expected that the outcomes from feeding RAC and caffeine in combination to finishing lambs can be translated to expected results in other ruminants such as cattle. The surprising results found in lambs show promise for use of RAC and caffeine in other ruminants, particularly cattle where RAC is an approved animal feed additive.
# (§1) A total of 36 male lambs (Border Leister x Merino) were selected at approximately 14 weeks of age and housed in pens of two lambs per pen in a naturally ventilated shed. Lambs were fed a commercial lamb finisher diet for a 14 day acclimatisation period prior to the start of the test period. In addition, all lambs were offered 250 g lucerne hay per day as roughage. At the start of the test period, lambs were individually weighed (average weight 29.8 kg±0.29 kg), ear tagged and the pen randomly allocated to one of three dietary treatments:
# (§2) A: Control (no RAC or Caffeine for the entire 56 day test period)
# (§3) B: RAC (20 ppm (20 g/t) RAC for the entire 56 day test period)
# (§4) C: RAC +Caffeine (20 ppm (20 g/t)) RAC offered from day 0 to day 21, followed by 20 ppm (20 g/t) RAC plus 0.5 kg/t caffeine offered from day 21 to day 56).
# (§5) Diets were pelleted and fed ad libitum for the entire test period, while water was also freely available at all times. In addition to the pelleted test feeds, each lamb was offered 200 g lucerne hay per day (floor fed) as an additional source of roughage.
# Lambs were shorn prior to entry to the facility to minimise the impact of wool growth on rate of gain measurements and body composition analysis. Individual weights were recorded periodically throughout the test period (Days 0, 21, 35 and 56), while intake of the pelleted test diets was measured by feed disappearance and feed efficiency subsequently calculated.
# No attempt was made to measure feed residues of the lucerne hay as the lambs consumed this rapidly and the volume of wastage was considered insignificant.
# (§6) Data were subjected to an analysis of variance (ANOVA) for the main effect of dietary treatment. Data for treatments B and C were pooled for the initial 21 day feeding period as both treatment groups were fed the same diet during this time period. The experimental unit for all analyses was the pen of ruminant. All analyses were performed using Genstat 16th Edition (Payne RW, Harding SA, Genstat Committee 2005 Genstat release 8 reference manual, USN International: Oxford UK).
# [2] = Body composition of lambs by dual energy x-ray absorptiometry (DXA) scanning; assay type: in vivo, lambs (Border Leister x Merino)
# Text: as §1, §2, §3, §4, §5
# Dual energy x-ray absorptiometry (DXA) scanning was undertaken using a Hologic X-Ray Bone Densitometer (Hologic Inc, Waltham, Mass., USA) at day 21 and day 56 of the test period. All lambs were weighed on the day of scanning (prior to anaesthesia). Lambs were sedated using xylazine (administered intramuscularly) and anaesthetised with ketamine intra venously under veterinary direction. Once anaesthetised, lambs were positioned in a ventral recumbency with their hind legs extended and forelegs positioned caudally to accommodate the DXA regional analysis software. The whole body scan mode was used for each animal, with the length of the scan adjusted for the length of the lamb. Following DXA analysis, lambs were monitored by a veterinarian for full recovery from anaesthesia. As the DXA software generates body composition estimates for humans, the raw DXA output from each scan was adjusted for lambs using equations developed by comparisons with actual empty body chemical composition (Hunter 2000).
# as §6
# [3] = RAC 20 ppm throughout, RAC + Caffeine: 0.5 kg/t caffeine added from day 21, day 0 weight as covariate
# [4] = RAC 20 ppm, RAC + Caffeine: 20 ppm RAC plus 0.5 kg/t caffeine from day 21
# [5] = day 0 to day 21, 20 ppm RAC in diet, treatments B and C pooled
# [6] = entire test period, RAC 20 ppm, RAC + Caffeine: caffeine 0.5 kg/t added day 21-56
# [7] = DXA, RAC 20 ppm day 0-56, RAC + Caffeine: caffeine 0.5 kg/t added day 21-56, live weight day 56 as covariate
# [8] = DXA, RAC treatment groups pooled, 20 ppm RAC day 0-21
# [9] = DXA, both groups 20 ppm RAC day 0-21, live weight day 21 as covariate
compound,measurement,setting,value
"CC(CCc1ccc(O)cc1)NCC(O)c1ccc(O)cc1 (racemic) [RAC, Ractopamine hydrochloride]",Live weight day 21,"[1]; 20 ppm RAC in diet day 0-21, treatments B and C pooled, day 0 weight as covariate",37.9 kg
same,Live weight Day 35,[1]; [3],43.6 kg
same,Live weight Day 56,[1]; [3],47.3 kg
same,ADFI Day 21-35,[1]; [4],1.77 kg/day
same,ADFI Day 21-56,[1]; [4],1.82 kg/day
same,ADFI Day 35-56,[1]; [4],1.77 kg/day
same,ADG Day 21-35,[1]; [4],0.380 kg/day
same,ADG Day 21-56,[1]; [4],0.266 kg/day
same,ADG Day 35-56,[1]; [4],0.177 kg/day
same,FCE Day 21-35,[1]; [4],0.214 gain/feed
same,FCE Day 21-56,[1]; [4],0.144 gain/feed
same,FCE Day 35-56,[1]; [4],0.113 gain/feed
same,ADFI,[1]; [5],1.40 kg/day
same,ADG,[1]; [5],0.388 kg/day
same,FCE (gain/feed),[1]; [5],0.28 gain/feed
same,ADFI Day 0-56,[1]; [6],1.67 kg/day
same,ADG Day 0-56,[1]; [6],0.317 kg/day
same,FCE Day 0-56,[1]; [6],0.189 gain/feed
same,Live weight Day 21,"[1]; three treatments, both groups 20 ppm RAC day 0-21, day 0 weight as covariate",38.2 kg
same,Adipose tissue (%) Day 56,[2]; [7],22.90%
same,Bone mineral content (%) Day 56,[2]; [7],3.01%
same,Lean tissue (%) Day 56,[2]; [7],72.64%
same,"adipose tissue at day 21, pooled data",[2]; [8],19.24%
same,"percentage of lean tissue at day 21, pooled data",[2]; [8],76.83%
same,Adipose tissue (%) Day 21,[2]; [9],19.18%
same,Bone mineral content (%) Day 21,[2]; [9],2.95%
same,Lean tissue (%) Day 21,[2]; [9],76.84%
same,Feed efficiency for lean tissue deposition (kg lean tissue gain: kg feed intake) Day 21-56,[2]; [4],0.073 kg lean tissue gain: kg feed intake

# Reference: US20170105949A1, “METHOD FOR IMPROVING FEED EFFICIENCY IN RUMINANTS” (Rivalea (Australia) Pty Ltd, priority 2014, published 2017)
